Results on 35 compounds are retold here after ChEMBL document CHEMBL1132395, “Inhibition of herpes proteases and antiviral activity of 2-substituted thieno[2,3-d]oxazinones” (Bioorg Med Chem Lett, 1999).

For orientation: IC50 means the concentration at which inhibition is half-maximal. A higher IC50 goes with weaker potency.

Calls of active or inactive are those of the source. The calls are words filed in the database; no cut-off is given here.

The target of assay [1] is T1, Capsid scaffolding protein (Human herpesvirus 2 (strain HG52) (HHV-2) (Human herpes simplex virus2), UniProt P89449).
T1 sequence (P89449 whole entry): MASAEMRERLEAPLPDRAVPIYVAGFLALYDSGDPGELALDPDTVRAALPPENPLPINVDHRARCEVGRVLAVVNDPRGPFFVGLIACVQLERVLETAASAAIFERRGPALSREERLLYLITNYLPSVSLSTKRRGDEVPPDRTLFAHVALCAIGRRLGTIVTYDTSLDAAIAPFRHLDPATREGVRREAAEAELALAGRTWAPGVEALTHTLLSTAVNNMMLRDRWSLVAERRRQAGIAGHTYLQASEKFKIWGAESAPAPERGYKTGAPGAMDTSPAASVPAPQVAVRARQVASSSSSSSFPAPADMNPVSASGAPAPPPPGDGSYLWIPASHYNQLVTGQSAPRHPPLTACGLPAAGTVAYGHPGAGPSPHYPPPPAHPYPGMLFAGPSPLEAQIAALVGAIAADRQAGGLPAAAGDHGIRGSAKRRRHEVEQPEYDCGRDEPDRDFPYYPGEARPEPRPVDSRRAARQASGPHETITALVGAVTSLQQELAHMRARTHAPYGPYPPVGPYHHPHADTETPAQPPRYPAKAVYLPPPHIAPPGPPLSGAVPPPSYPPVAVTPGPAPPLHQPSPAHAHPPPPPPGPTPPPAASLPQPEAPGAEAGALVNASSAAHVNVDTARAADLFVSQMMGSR
The assay is described as follows: Inhibitory activity against herpes simplex virus type 2 (HSV-2) protease was determined using quenched fluorescence assay.

The test system of a further assay is Human alphaherpesvirus 3. The assay is described as follows: Inactivation rate against Varicella Zoster Virus (VZV) was determined. The class given is functional.
Assay [2] concerns Human alphaherpesvirus 2. Nature of the assay: Inactivation rate against herpes simplex type 2 (HSV-2) was determined. The class given is functional.
Assay [3] concerns Human alphaherpesvirus 2. Nature of the assay: Cytotoxicity against herpes simplex virus type 2 (HSV-2) infected cells by pulse chase (PC) assay. The class given is functional.
The subject of assay [4] is Human alphaherpesvirus 2. The assay is described as follows: Cytotoxicity in herpes simplex virus type 2 (HSV-2). The class given is functional.
The next assay deals with MRC5. The assay is described as follows: Cytotoxicity by using MRC-5 cell culture assay (XTT). The class given is functional. The settings on record: Homo sapiens, read-out: TC50 (the source's name). (Tetrazolium assays rely on reduction of a dye to a coloured formazan, in cell work by metabolically active cells.)
The test system of assay [5] is Human alphaherpesvirus 2. Nature of the assay: Cytotoxicity against herpes simplex virus type 2 (HSV-2). The class given is functional.
The test system of assay [6] is Cytomegalovirus. Nature of the assay: Inhibitory activity against cytomegalovirus (CMV) herpes was determined using quenched fluorescence assay. The class given is functional, organism-based. The settings on record: Human betaherpesvirus 5.
For assay [7], the system named is Human alphaherpesvirus 2. The assay is described as follows: Cytotoxicity in herpes simplex virus type 2 (HSV-2); NI= no inhibition. The class given is functional, organism-based.
The subject of assay [8] is Human alphaherpesvirus 2. The assay is described as follows: Inhibitory activity against herpes simplex virus type 2 (HSV-2) herpes protease was determined using quenched fluorescence assay. The class given is functional, organism-based.
Assay [9] has as its system Cytomegalovirus. The assay is described as follows: Inhibitory activity against cytomegalovirus (CMV) herpes protease was determined using quenched fluorescence assay. The class given is functional, organism-based. To be noted: Human betaherpesvirus 5.
Assay [10] concerns Varicella zoster virus protease (Varicella-zoster virus). Nature of the assay: Inhibitory activity against Varicella Zoster Virus (VZV) protease was determined using quenched fluorescence assay (IA=inactive up to 20 uM).
Assay [11] has as its system Human alphaherpesvirus 2. Nature of the assay: Inhibitory activity against herpes simplex virus type 2 (HSV-2) protease was determined using quenched fluorescence assay (IA=inactive up to 20 uM). The class given is functional, organism-based.
In assay [12] the test system is Cytomegalovirus. The assay is described as follows: Inhibitory activity against cytomegalovirus (CMV) protease was determined using quenched fluorescence assay (IA=inactive up to 20 uM). The class given is functional, organism-based.

In [1], `Cc1csc2nc([C@H](C)NC(=O)/C=C/c3c(F)cccc3Cl)oc(=O)c12` displayed an IC50 of 520 nM.

As for `Cc1csc2nc([C@H](C)NC(=O)/C=C/c3ccsc3Br)oc(=O)c12`, inhibition in assay [1] was half-maximal at 200 nM (IC50).

In assay [1], `Cc1csc2nc([C@H](C)NC(=O)/C=C/c3ccc(N(C)C)cc3)oc(=O)c12` returned an IC50 of 570 nM.

`Cc1csc2nc([C@H](C)NC(=O)/C=C/c3cc(Br)cs3)oc(=O)c12`: the half-inhibitory concentration (IC50) in assay [1] came to 190 nM.

On to `COc1cc(/C=C/C(=O)N[C@@H](C)c2nc3scc(C)c3c(=O)o2)cc(OC)c1`, for which the IC50 in assay [1] came to 350 nM.

For the compound `Cc1csc2nc([C@H](C)NC(=O)/C=C/c3ccc(Cl)s3)oc(=O)c12`, the “K obs / 1” value with Human alphaherpesvirus 3 came out at 60000 M⁻¹ s⁻¹; in the assay on Human alphaherpesvirus 2 [2], 58000 M⁻¹ s⁻¹. In the assay with Human alphaherpesvirus 2 [3], this compound registered a TC50 above 250000 nM. In addition, in the assay on Human alphaherpesvirus 2 [4], the PC50 came to 18 µM. The IC50 in assay [1] was determined as 210 nM. Further, the CC50 with MRC5 stood at 130000 nM.

Take `Cc1csc2nc([C@H](C)NC(=O)/C=C/c3ccccc3)oc(=O)c12`: the “K obs / 1” value with Human alphaherpesvirus 3 amounted to 44000 M⁻¹ s⁻¹; in the assay with Human alphaherpesvirus 2 [2], 65000 M⁻¹ s⁻¹. For the same compound, the PC50 in the assay with Human alphaherpesvirus 2 [5] came out at 7.5 µM. The compound also gave a TC50 in the assay with Human alphaherpesvirus 2 [3] above 250000 nM. The compound also gave an IC50 in assay [1] of 300 nM. The CC50 in the assay with MRC5 amounted to 56000 nM.

As for `Cc1ccccc1/C=C/C(=O)N[C@@H](C)c1nc2scc(C)c2c(=O)o1`, the IC50 with Cytomegalovirus [6] came out at 20000 nM; in [1], 1500 nM.

Turning to `Cc1csc2nc([C@H](C)NC(=O)/C=C/c3ccsc3)oc(=O)c12`, the IC50 is 380 nM with Cytomegalovirus [6] and 330 nM in assay [1].

With `Cc1csc2nc([C@H](C)NC(=O)/C=C/c3ccc(O)cc3Cl)oc(=O)c12`, the TC50 with Human alphaherpesvirus 2 [3] was 56000 nM. Besides, the PC50 result in the assay with Human alphaherpesvirus 2 [7] was “inactive”. Also, the IC50 with Cytomegalovirus [6] stood at 190 nM; in assay [1] it was 230 nM. Further, in the assay on MRC5, the CC50 was 100000 nM.

As for `Cc1csc2nc([C@H](C)NC(=O)/C=C/c3ccc(Br)s3)oc(=O)c12`, the “K obs / 1” value in the assay on Human alphaherpesvirus 3 was 63000 M⁻¹ s⁻¹; in the assay on Human alphaherpesvirus 2 [2] it was 12000 M⁻¹ s⁻¹. The compound also had a TC50 in the assay with Human alphaherpesvirus 2 [3] above 250000 nM. The same compound yielded a PC50 with Human alphaherpesvirus 2 [4] of 8 µM. For the same compound, the IC50 in assay [1] turned out to be 270 nM. Besides, the CC50 in the assay on MRC5 stood at 83000 nM.

In the case of `Cc1csc2nc([C@H](C)NC(=O)/C=C/c3ccccc3Cl)oc(=O)c12`, half-maximal inhibition in assay [1] (IC50) required 610 nM.

Regarding `Cc1csc2nc([C@H](C)NC(=O)/C=C/c3c(F)cccc3F)oc(=O)c12`, the IC50 in assay [1] was determined as 630 nM.

Regarding `Cc1csc2nc([C@H](C)NC(=O)C=C(c3ccccc3)c3ccccc3)oc(=O)c12`, in assay [1], the IC50 was found to be 500 nM.

With `COc1cccc(OC)c1/C=C/C(=O)N[C@@H](C)c1nc2scc(C)c2c(=O)o1`, half-maximal inhibition in assay [1] (IC50) was put at 1300 nM.

In turn, `Cc1csc2nc([C@H](C)NC(=O)/C=C/c3ccc(Br)o3)oc(=O)c12` registered an IC50 in assay [1] of 490 nM.

Take `Cc1csc2nc([C@H](C)NC(=O)/C=C/c3ccccc3[N+](=O)[O-])oc(=O)c12`: the IC50 in assay [1] stood at 720 nM.

Consider `Cc1csc2nc([C@H](C)NC(=O)C=C(c3cccs3)c3cccs3)oc(=O)c12`, for which the “K obs / 1” value in the assay on Human alphaherpesvirus 2 [2] stood at 120000 M⁻¹ s⁻¹. In addition, the TC50 with Human alphaherpesvirus 2 [3] was 21000 nM. Besides, the PC50 entry in the assay with Human alphaherpesvirus 2 [7] was “inactive”. The compound also returned an IC50 in assay [1] of 110 nM. Also, in the assay with MRC5, the CC50 is 95000 nM.

Turning to `Cc1csc2nc([C@H](C)NC(=O)/C=C(\c3ccccc3)c3cccs3)oc(=O)c12`, the half-inhibitory concentration (IC50) in [1] worked out at 260 nM.

`Cc1csc2nc([C@H](C)NC(=O)/C=C/c3cccc(Cl)c3)oc(=O)c12` came in with an IC50 in [1] of 980 nM.

Regarding `Cc1csc2nc([C@H](C)NC(=O)/C=C/c3ccc([N+](=O)[O-])cc3)oc(=O)c12`, in [1], half-maximal inhibition (IC50) required 940 nM.

In assay [1], `Cc1csc2nc([C@H](C)NC(=O)/C=C/c3ccc(C=O)cc3)oc(=O)c12` came in with an IC50 of 530 nM.

Regarding `Cc1csc2nc([C@H](C)NC(=O)/C=C/c3ccccn3)oc(=O)c12`, inhibition in [1] was half-maximal at 500 nM (IC50).

`Cc1ccc(/C=C/C(=O)N[C@@H](C)c2nc3scc(C)c3c(=O)o2)s1` showed an IC50 in assay [1] of 650 nM.

Regarding `CCOc1ccccc1/C=C/C(=O)N[C@@H](C)c1nc2scc(C)c2c(=O)o1`, in [1], the IC50 was determined as 560 nM.

For the compound `Cc1csc2nc([C@H](C)NC(=O)/C=C/c3ccccc3Br)oc(=O)c12`, in [1], it took 480 nM to reach half-maximal inhibition (IC50).

For the compound `Cc1ccsc1/C=C/C(=O)N[C@@H](C)c1nc2scc(C)c2c(=O)o1`, the IC50 in assay [1] came out at 330 nM.

For `Cc1csc2nc([C@H](C)NC(=O)/C=C/c3ccnc4ccccc34)oc(=O)c12`, the “K obs / 1” value came to 45000 M⁻¹ s⁻¹ with Human alphaherpesvirus 3 and 76000 M⁻¹ s⁻¹ with Human alphaherpesvirus 2 [2]. The IC50 in assay [1] was 250 nM.

`Cc1csc2nc([C@H](C)NC(=O)/C=C/c3ccc([N+](=O)[O-])s3)oc(=O)c12` returned an IC50 in assay [1] of 570 nM.

As for `Cc1csc2nc([C@H](C)NC(=O)/C=C/c3sccc3Br)oc(=O)c12`, in [1], it took 250 nM to reach half-maximal inhibition (IC50).

As to `Cc1csc2nc([C@H](C)NC(=O)/C=C(\Sc3ccccc3)c3ccccc3)oc(=O)c12`, the 50% inhibitory concentration (IC50) came out at 3100 nM in the assay with Human alphaherpesvirus 2 [8] and 1900 nM in the assay with Cytomegalovirus [9].

As for `Cc1csc2nc([C@H](C)NC/C=C/c3ccccc3)oc(=O)c12`, the IC50 entry (in [10]; with Human alphaherpesvirus 2 [11]; with Cytomegalovirus [12]) was “No inhibition” throughout.

For the compound `Cc1cc(/C=C/C(=O)N[C@@H](C)c2nc3scc(C)c3c(=O)o2)c(C)s1`, the “k obs / 1” value in the assay on Human alphaherpesvirus 3 turned out to be 76000 M⁻¹ s⁻¹. Further, the “K obs / 1” value in the assay with Human alphaherpesvirus 2 [2] is 53000 M⁻¹ s⁻¹. Also, in the assay on Human alphaherpesvirus 2 [3], the TC50 was found to be 130000 nM. Further, the PC50 with Human alphaherpesvirus 2 [4] came out at 12 µM. This compound registered an IC50 in [1] of 190 nM. The CC50 in the assay on MRC5 worked out at 180000 nM.

Take `Cc1csc2nc([C@H](C)NC(=O)/C=C/c3c(Cl)cccc3Cl)oc(=O)c12`: the “K obs / 1” value with Human alphaherpesvirus 3 and in the assay with Human alphaherpesvirus 2 [2] was 33000 M⁻¹ s⁻¹ throughout. In assay [1], this compound gave an IC50 of 1970 nM.

The compound `Cc1csc2nc([C@H](C)NC(=O)/C=C/c3cccn3C)oc(=O)c12` displayed a half-maximal inhibitory concentration (IC50) in assay [1] of 1000 nM.
